Results as given in ChEMBL document CHEMBL1149690, “Membrane permeable esterase-activated fluorescent imaging probe” (Bioorg Med Chem Lett, 2007).

What was measured:
[1] = Photostability after 30 mins assessed by fluorescence intensity; type: ADME; details: 0.5 h
[2] = Chemical stability assessed as hydrolysis at pH below 1; type: physicochemical
[3] = Chemical stability assessed as hydrolysis at pH more than 10; type: physicochemical
[4] = Chemical stability assessed as hydrolysis at pH 3 to 9 after 1.5 hrs; type: physicochemical; details: buffer, pH 3, 1.5 h

| Compound | Fluorescence intensity [1] [%] | Activity [2] | Activity [3] | Activity [4] |
| --- | --- | --- | --- | --- |
| CCCN1/C(=C/C=C2\CCC/C(=C\C=C3\N(CCC)c4ccccc4C3(C)C)C2=O)C(C)(C)c2ccccc21 | < 15 |  |  |  |
| CCCN1/C(=C/C=C2\CCCC(/C=C/C3=[N+](CCC)c4ccccc4C3(C)C)=C2OC(C)=O)C(C)(C)c2ccccc21.[I-] |  | Active | Active | Not Active |
